Like-named read-outs stand apart in the source and are kept apart here.
Experiments:
[1] = molecular target: T1, DR13=HLA-DR(α1*0101,α1*1301) (Homo sapiens, UniProt P01903+P01911, A100E/A169T/K41T/L162R/M171V/P40S/Q125H/Q178H/Q39Y/Q99D/R42S/S66N/T262R/W38E/Y61H); assay: HLA-DR specific binding assay, DR13
T1 construct: endogenous in cells; host or cells: 0206AD (EBV homozygous B cell line)

[2] = molecular target: T2, DRB4=HLA-DR(α1*0101,α4*0101) (Homo sapiens, UniProt P01903+P13762, G164S); assay: HLA-DR specific binding assay, DRB4 (DR53)
T2 construct: endogenous in cells

[3] = test system: lymphocytes obtained from HSV-1 infected H-2^d mice; assay: HSV-primed T-cell responses to gD peptides in HSV-1 infected mice; assay type: cell-based; conditions: for immunodominance of epitopes in HSV-primed T-cell responses: HSV-1 infected H-2^d mice
Description: Twelve days after the second immunization, spleen and inguinal lymph nodes (LN) were removed and placed into ice-cold serum free HL-1 medium supplemented with 15 mM HEPES, 5×10^−5 M β-mercaptoethanol, 2 mM glutamine, 50 U of penicillin and 50 μg of streptomycin (GIBCO-BRL, Grand Island, N.Y.) (complete medium, CM). The cells were cultured in 96-well plates at 5×10^5 cells/well in CM, with recall or control peptide at 30, 10, 3, 1, or 0.3 μg/ml concentration, as previously described in (BenMohamed et al., 2000 and 2002). The cell suspensions were incubated for 72 h at 37° C. in 5% CO2. One μCi (micro-curie) of (^3H)-thymidine (Dupont MEN, Boston, Mass.) was added to each well during the last 16 h of culture. The incorporated radioactivity was determined by harvesting cells onto glass fiber filters and counted on a Matrix 96 direct ionization-counter (Packard Instruments, Meriden, Conn.). Results were expressed as the mean cpm of cell-associated (^3H)-thymidine recovered from wells containing Ag minus the mean cpm of cell-associated (^3H)-thymidine recovered from wells without Ag (A cpm) (average of triplicate). The Stimulation Index (SI) was calculated as the mean cpm of cell-associated (^3H)-thymidine recovered from wells containing Ag divided by the mean cpm of cell-associated (^3H)-thymidine recovered from wells without Ag (average of triplicate). For all experiments the irrelevant control peptide gB141-165 and the T-cell mitogen Concanavalin A (ConA) (Sigma, St. Louis, Mo.) were used as negative and positive controls, respectively. Proliferation results were confirmed by repeating each experiment twice. A T-cell proliferative response was considered positive when A cpm>1000 and SI>2.
To define the fine specificity of broadly reactive T-cells associated with viral immunity and to explore immunodominance in the context of HSV infection, proliferation of lymphocytes obtained from twenty HSV-1 infected H-2^d mice were evaluated using the twelve gD peptides as Ag (FIG. 6). […] Despite a difference between individual mice, a unique array of T-cell responses was identified for each of the twenty infected mice analyzed.

[4] = molecular target: T3, DR11=HLA-DR(α1*0101,α1*1101) (Homo sapiens, UniProt P01903+P01911, A100R/A169T/A87E/I96F/K41T/L162R/M171V/P40S/Q125H/Q178H/Q39Y/Q99D/R42S/S66Y/T262R/V115G/W38E); assay: biochemical; assay type: binding
T3 construct: endogenous in cells; host or cells: SWEIG (EBV homozygous B cell line)

[5] = molecular target: T4, DP401=HLA-DP(α1*0101,α1*0401) (Homo sapiens, UniProt P04440+P20036); assay: biochemical; assay type: binding
T4 sequence (P20036 32-260 limits assumed): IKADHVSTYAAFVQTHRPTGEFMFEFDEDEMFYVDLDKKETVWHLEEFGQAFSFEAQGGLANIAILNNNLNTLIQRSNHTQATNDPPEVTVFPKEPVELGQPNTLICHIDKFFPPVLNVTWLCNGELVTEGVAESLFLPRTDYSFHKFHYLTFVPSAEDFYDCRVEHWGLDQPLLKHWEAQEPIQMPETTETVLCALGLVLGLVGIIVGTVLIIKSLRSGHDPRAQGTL
T4 sequence (P04440 30-258): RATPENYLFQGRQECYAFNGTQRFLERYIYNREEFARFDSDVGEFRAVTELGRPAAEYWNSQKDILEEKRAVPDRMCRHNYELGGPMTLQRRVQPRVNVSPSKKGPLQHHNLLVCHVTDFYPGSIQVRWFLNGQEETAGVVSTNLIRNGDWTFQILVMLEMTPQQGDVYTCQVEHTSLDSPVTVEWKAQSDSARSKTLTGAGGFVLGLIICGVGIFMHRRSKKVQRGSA

[6] = molecular target: T5, DR7=HLA-DR(α1*0101,α1*0701) (Homo sapiens, UniProt P01903+P01911, A100R/A102G/A103Q/D57E/D86V/E43K/F76Y/K127E/L162R/M171V/P40G/Q125H/Q99D/R33Q/R42Y/R54Q/S133A/S66F/T210M/V115G/Y107V/Y59L/Y89S); assay: HLA-DR specific binding assay, DR7
T5 construct: endogenous in cells; host or cells: EBV homozygous human B cell line

[7] = molecular target: T6, DRB3=HLA-DR(α1*0101,α3*0101) (Homo sapiens, UniProt P01903+P79483); assay: HLA-DR specific binding assay, DRB3 (DR52)
T6 construct: endogenous in cells; host or cells: STEILIN or 0206AD (both typed DRB3*0101)

[8] = molecular target: T7, DR15=HLA-DR(α1*0101,α1*1501) (Homo sapiens, UniProt P01903+P01911); assay: HLA-DR specific binding assay, DR15
T7 construct: endogenous in cells; host or cells: EBV homozygous human B cell line

[9] = test system: HLA-DR and HLA-DP molecules; assay: MHC class II binding assays, panel of twelve HLA class II molecules (number of alleles bound); conditions: number of the twelve class II MHC alleles bound; title: Threshold 600 nM/5 alleles
[10] = molecular target: T8, DRB5=HLA-DR(α1*0101,α5*0101) (Homo sapiens, UniProt P01903+Q30154); assay: biochemical; assay type: binding
T8 construct: endogenous in cells; host or cells: EBV homozygous human B cell line

[11] = molecular target: T9, DR3=HLA-DR(α1*0101,α1*0301) (Homo sapiens, UniProt P01903+P01911, A100K/A102G/A103R/A169T/F55Y/I96L/K41T/L162R/M171V/P40S/Q125H/Q178H/Q39Y/R42S/S66N/T106N/T262R/W38E/Y61H); assay: HLA-DR specific binding assay, DR3
T9 construct: endogenous in cells; host or cells: STEILIN (EBV homozygous B cell line)

[12] = Class II MHC allele DR11, read-out: IC50, DR11
[13] = Table V, […], read-out: IC50 DR11
[14] = IC50, DRD3, Class II MHC allele DRD3 (so in the source)
[15] = Table V, […], read-out: IC50 DRB5
[16] = IC50, DR3, Class II MHC allele DR3

T8 sequence (Q30154 30-266, other chains not shown): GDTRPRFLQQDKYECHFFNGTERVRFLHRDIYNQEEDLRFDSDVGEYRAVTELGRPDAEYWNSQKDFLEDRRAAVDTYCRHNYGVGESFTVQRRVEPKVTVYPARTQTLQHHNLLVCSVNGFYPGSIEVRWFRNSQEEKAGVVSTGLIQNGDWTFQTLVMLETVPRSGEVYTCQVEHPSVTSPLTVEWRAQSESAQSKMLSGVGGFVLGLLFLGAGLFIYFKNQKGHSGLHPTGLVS
T6 sequence (P79483 30-266, other chains not shown): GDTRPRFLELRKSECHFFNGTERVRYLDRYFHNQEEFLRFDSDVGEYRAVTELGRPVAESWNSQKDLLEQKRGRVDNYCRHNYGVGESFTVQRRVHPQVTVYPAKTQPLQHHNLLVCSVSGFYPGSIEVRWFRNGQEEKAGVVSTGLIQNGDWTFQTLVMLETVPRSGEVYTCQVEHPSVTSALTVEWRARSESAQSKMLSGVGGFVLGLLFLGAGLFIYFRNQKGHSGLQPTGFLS

| Compound | IC50 [1] [nM] | IC50 [2] [nM] | immunodominance of epitopes in HSV-primed T-cell responses [3] | IC50 [4, 12] [nM] | IC50 [4, 13] [nM] | IC50 ([5]; Class II MHC allele DP401) [nM] | IC50 ([5]; Table V, […]) [nM] | IC50 [6] [nM] | IC50 [7, 14] [nM] | IC50 ([7]; IC50 DRB3, Table V, […]) [nM] | IC50 [8] [nM] | Range [9] | IC50 [10, 15] [nM] | IC50 [11, 16] [nM] | IC50 ([11]; IC50 DR3, Table V, […]) [nM] | IC50 ([1]; read-out: IC50, DR13, Class II MHC allele DR13) [nM] | IC50 ([4]; IC50, DR11) [nM] | IC50 ([4]; IC50 DR11) [nM] | IC50 [10] [nM] | T-cell responses recalled in HSV infected mice ([3]; HSV infected H-2^d mice (FIG. 6)) |
| --- | --- | --- | --- | --- | --- | --- | --- | --- | --- | --- | --- | --- | --- | --- | --- | --- | --- | --- | --- | --- |
| CC[C@H](C)[C@H](NC(=O)[C@@H]1CCCN1C(=O)[C@H](CS)NC(=O)[C@H](C)NC(=O)CNC(=O)[C@H](CC(C)C)NC(=O)[C@H](CO)NC(=O)[C@H](CCCCN)NC(=O)[C@@H](N)CC(N)=O)C(=O)N[C@@H](CCCNC(=N)N)C(=O)N[C@H](C(=O)N[C@@H](CCC(N)=O)C(=O)N1CCC[C@H]1C(=O)N[C@@H](CCCNC(=N)N)C(=O)N[C@@H](Cc1c[nH]c2ccccc12)C(=O)N[C@@H](CC(N)=O)C(=O)N[C@@H](Cc1ccc(O)cc1)C(=O)N[C@@H](Cc1ccc(O)cc1)C(=O)N[C@@H](CC(=O)O)C(=O)N[C@@H](CO)C(=O)N[C@@H](Cc1ccccc1)C(=O)N[C@@H](CO)C(=O)N[C@@H](C)C(=O)N[C@H](C(=O)N[C@@H](CO)C(=O)N[C@@H](CCC(=O)O)C(=O)N[C@@H](CC(=O)O)C(=O)N[C@@H](CC(N)=O)C(=O)N[C@@H](CC(C)C)C(=O)NCC(=O)N[C@@H](Cc1ccccc1)C(=O)N[C@@H](CC(C)C)C(=O)O)C(C)C)[C@@H](C)O [HSV 33] | 160 | 319 | subdominant epitopes | 289 | 289 | 83 | 83 | 19 | 226 | 226 | 2 | 12 | 134 | 66 | 66 |  |  |  |  |  |
| CC[C@H](C)[C@H](NC(=O)[C@H](CCC(N)=O)NC(=O)[C@@H]1CCCN1C(=O)[C@H](C)NC(=O)[C@H](CCC(=O)O)NC(=O)[C@H](CO)NC(=O)[C@@H]1CCCN1C(=O)[C@H](C)NC(=O)[C@H](CC(N)=O)NC(=O)[C@H](CC(C)C)NC(=O)[C@H](CC(C)C)NC(=O)[C@@H](NC(=O)[C@H](CO)NC(=O)[C@H](CCCNC(=N)N)NC(=O)[C@H](CS)NC(=O)[C@H](C)NC(=O)[C@H](CCCNC(=N)N)NC(=O)[C@H](CCC(=O)O)NC(=O)[C@H](CC(C)C)NC(=O)[C@@H](NC(=O)[C@H](C)NC(=O)[C@H](Cc1ccc(O)cc1)NC(=O)[C@H](Cc1ccc(O)cc1)NC(=O)[C@@H](NC(=O)[C@@H](NC(=O)[C@@H](NC(=O)[C@@H]1CCCN1C(=O)[C@H](CC(C)C)NC(=O)[C@H](CO)NC(=O)[C@@H]1CCCN1C(=O)[C@@H]1CCCN1C(=O)[C@@H](N)CCC(N)=O)[C@@H](C)CC)[C@@H](C)O)C(C)C)C(C)C)C(C)C)C(=O)N[C@H](C(=O)N[C@@H](CCCNC(=N)N)C(=O)O)C(C)C [HSV 36] | > 100000 |  | immunodominant epitopes |  |  | 615 | 615 | 173 | 5000 | 5000 | 18 | 9 |  | 1250 | 1250 | > 100000 | 120 | 120 | 66 |  |
| CC[C@H](C)[C@H](NC(=O)[C@H](CO)NC(=O)[C@H](CC(=O)O)NC(=O)[C@@H](NC(=O)[C@@H](NC(=O)[C@@H](NC(=O)CNC(=O)[C@H](CCC(N)=O)NC(=O)[C@H](CCC(N)=O)NC(=O)[C@H](Cc1ccc(O)cc1)NC(=O)[C@H](C)NC(=O)[C@H](CCC(N)=O)NC(=O)[C@@H]1CCCN1C(=O)[C@H](CO)NC(=O)[C@H](CC(C)C)NC(=O)[C@H](CS)NC(=O)[C@H](C)NC(=O)[C@@H](N)CO)C(C)C)[C@@H](C)O)C(C)C)C(=O)NCC(=O)N[C@@H](CCSC)C(=O)N[C@@H](CC(C)C)C(=O)N1CCC[C@H]1C(=O)N[C@@H](CCCNC(=N)N)C(=O)N[C@@H](Cc1ccccc1)C(=O)N[C@H](C(=O)N1CCC[C@H]1C(=O)N[C@@H](CCC(=O)O)C(=O)N[C@@H](CC(N)=O)C(=O)N[C@@H](CCC(N)=O)C(=O)N[C@@H](CCCNC(=N)N)C(=O)N[C@H](C(=O)N[C@H](C(=O)N[C@@H](C)C(=O)N[C@H](C(=O)N[C@@H](Cc1ccc(O)cc1)C(=O)O)C(C)C)C(C)C)[C@@H](C)O)[C@@H](C)CC [HSV 37] | 2050 | 3740 |  | 44 | 44 |  |  | 200 | 41 | 41 | 13 | 9 | 68 | 307 | 307 |  |  |  |  | either low or no response |
